According to US20210100905A1, “APPLICATION OF COMPOUND OR TRADITIONAL CHINESE MEDICINE EXTRACT IN PREPARATION OF NUCLEIC ACID DELIVERY AGENT, AND RELATED PRODUCTS” (INSTITUTE OF BASIC MEDICAL SCIENCES CHINESE ACADEMY OF …, priority 2018, published 2021):

Experiment: In vivo delivery experiment of lipid nucleic acid mixture (Example 13)
Parameters: species or system C57 mice
Conditions: oral administration, 6 hours; for delivery effect into mouse blood and tissues (heart, spleen, kidney or intestine) compared with POPC: FIG. 117a-146b, 100 μg lipid : 1 nmol sRNA; for delivery of small RNA (PGY-sRNA-26) into kidney / delivery of small RNA (PGY-sRNA-26) into spleen / delivery of small RNA (PGY-sRNA-26) into blood / delivery of small RNA (PGY-sRNA-26) into heart / delivery of small RNA (PGY-sRNA-26) into intestine: 100 μg lipid : 1 nmol sRNA per mouse, 90° C. 15 min
Experimental: 1. Experiment animals: C57 mice, male, approximately 6 weeks old, 20-24g. Mice were raised in the SPF room of the Animal Center of the Institute of Basic Medical Sciences of Chinese Academy of Medical Sciences. The mice were fasted for 12 hours before intragastric administration.
2. Preparation of the mixture of lipid and small RNA: the prepration was conducted on the basis of a dose of 100 μg lipid: lnmol single stranded small RNA PGY-sRNA-26 per mouse as follows: lnmol of each sRNA was dissolved with 500 μl DEPC water in a glass tube, 100 μg corresponding lipid solution No.33, No.35,No.37, No.42, No.43, No.44, No.45, No.46, No.47, No.48, No.49, No.50, No.51, No.52, No.53, No.54, No.55, No.56, No.57, No.58, No.59, No.60, No.61, No.62, No.65, No.66, No.67, No.68, No.69 or No.70 (lipid chloroform solution with a concentration as shown in Table 1-1) was added, pipetted to mix thoroughly. The solution was heated in water bath at 90° C. for 15 min, naturally cooled down, and was administered via gavage.
1) Tissue sampling and extraction of RNA: 6 hours after gavage in mice, 500 μl of blood was taken from the eyeball, and was added 1.5 ml Trizol Reagent LS to thoroughly mix and lyse. Tissue sampling: the mouse was sarcrified by breaking its neck, and the thoracic and abdominal cavities of the mouse was exposed to remove the heart/whole spleen/two kidneys/intestine (5 cm of upper end), which was immediately added 2 ml Trizol Reagent (purchased from Invitrogen) and homogenized until complete lysis with a tissue homogenizer.
2) Reverse transcription of sRNA to cDNA: Reverse Transcription Kit (High-Capacity cDNA Reverse Transcription Kits, Applied Biosystems, cat. no. 4368813), was used to reverse transcribe the total RNA to cDNA, and the reverse system was as follows: template RNA (150 ng/μL) 10 μL, 10× RT buffer, 2.0 μL, 25× dNTP Mix (100 mM) 0.8 μL, random primers 2.0 μL, the Multi Scribe™ reverse Transcriptase 1.0 RNase inhibitor 1.0 μL, nuclease-free H2O 3.2 μL. After a brief centrifugation, the reaction was loaded in a PCR reactor. The reaction conditions were as follows: (1) 25° C., 10 min; (2) 37° C., 120 min; (3) 85° C., 5 min; (4) 4° C., termination of the reaction. After the reaction, 20 μL RNase-free ddH2O was added to make up the final volume to 40 μL.
LightCycler 480 fluorescence quantitative PCR instrument was used, and the PCR reaction conditions were: 95° C. , 5 min for pre-denaturation, followed by the PCR amplification cycle: (1) 95° C., 10 s; (2) 55° C., 10 s; (3) 72° C., 20 s; a total of 40 cycles; 40° C. for 10 s in the end to cool down. The forward primer and reverse primer of the amplification reaction were designed and synthesized by Beijing Qing Ke New Industrial Biotechnology Co., Ltd. (U6 F primer: GTGCAGGGTCCGAGGT (SEQ ID NO: 24), PGY-sRNA-26F primer: […] (SEQ ID NO: 34), reverse primer miR all rev: GTGCACGCTCCGAGGT (SEQ ID NO: 26)).
3) The relative expression amount was calculated by the 2-ΔCt method.
The data were represented in the form of mean±SEM. The parameter difference between the experimental group and the control group was evaluated by unpaired t test. The data were statistically analyzed by GraphPad Prism software, and P<0.05 was considered statistically significant.

| Compound | delivery effect into mouse blood and tissues (heart, spleen, kidney or intestine) compared with POPC | delivery of small RNA (PGY-sRNA-26) into kidney | delivery of small RNA (PGY-sRNA-26) into spleen | delivery of small RNA (PGY-sRNA-26) into blood | delivery of small RNA (PGY-sRNA-26) into heart | delivery of small RNA (PGY-sRNA-26) into intestine |
| --- | --- | --- | --- | --- | --- | --- |
| CCCCCC/C=C\CCCCCCCCCC(=O)OC[C@H](COP(=O)(O)OCC[N+](C)(C)C)OC(=O)CCCCCCC/C=C\CCCCCC (stereo in doubt) [No. 69, 1-vaccenoyl-2-palmitoleoyl-sn-glycero-3-phosphocholine] | significantly better than or equivalent to that of POPC | delivers small RNA | delivers small RNA | – | – | – |
| CCCCCCCCCCCCCCCCCC(=O)OCC(COC(=O)CCCCCCCCCCCCCCCCC)OC(=O)CCCCCCCCCCCCCCC [No. 33, 1,3-Stearin-2-Palmitin 1,3-Octadecanoyl-2-Palmitoyl-glycerol] | significantly better than or equivalent to that of POPC | delivers small RNA | – | delivers small RNA | delivers small RNA | – |
| CCCCC/C=C\C/C=C\CCCCCCCC(=O)OC[C@H](CO)OC(=O)CCCCCCC/C=C\C/C=C\CCCCC [No. 35, (2S)-1-hydroxy-3-[(9Z,12Z)-octadeca-9,12-dienoyloxy] propan-2-yl (9Z,12Z)-octadeca-9,12-dienoate] | significantly better than or equivalent to that of POPC | delivers small RNA | – | – | delivers small RNA | – |
| CC/C=C\C/C=C\C/C=C\CCCCCCCC(=O)OCC(O)COC(=O)CCCCCCC/C=C\C/C=C\CCCCC (stereo not shown) [No. 45, 1-Linolein-3-Linolenin] | significantly better than or equivalent to that of POPC | delivers small RNA | delivers small RNA | – | delivers small RNA | delivers small RNA |
| CCCCCCCCCCCCCCCC(=O)N[C@@H](CO)[C@H](O)CCCCCCCCCCCCC [No. 53, C16 dihydroceramide (d16:0/16:0)] | significantly better than or equivalent to that of POPC | delivers small RNA | – | delivers small RNA | delivers small RNA | – |
| CCCCCCCCCCCCCCCCCC(=O)N[C@@H](CO)[C@H](O)CCCCCCCCCCCCCCCCC [No. 54, C18 dihydroceramide (d20:0/18:0)] | significantly better than or equivalent to that of POPC | delivers small RNA | – | delivers small RNA | – | – |
| CCCCCCCCCCCCCCCCCCC[C@@H](O)[C@H](CO)NC(=O)CCCCCCCCCCCCCCCCC [No. 55, C18 dihydroceramide (d22:0/18:0)] | significantly better than or equivalent to that of POPC | delivers small RNA | – | delivers small RNA | delivers small RNA | – |
| CC/C=C\C/C=C\C/C=C\CCCCCCCC(=O)OCC(COC(=O)CCCCCCCCCCCCCCC)OC(=O)CCCCCCC/C=C\C/C=C\CCCCC (stereo not shown) [No. 56, Triglyceride (16:0/18:2/ 18:3)] | significantly better than or equivalent to that of POPC | – | – | delivers small RNA | delivers small RNA | – |
| CC/C=C\C/C=C\C/C=C\CCCCCCCC(=O)OCC(COC(=O)CCCCCCC/C=C\CCCCCCCC)OC(=O)CCCCCCC/C=C\C/C=C\CCCCC (stereo not shown) [No. 57, Triglyceride (18:1/18:2/ 18:3)] | significantly better than or equivalent to that of POPC | delivers small RNA | – | – | – | – |
| CCCCCC/C=C\CCCCCCCC(=O)OC[C@H](COP(=O)(O)OCC)OC(=O)CCCCCCC/C=C\CCCCCC [No. 58, 1,2-dipalmitoleoyl-sn-glycero-3-phosphoethanol] | significantly better than or equivalent to that of POPC | – | – | – | delivers small RNA | delivers small RNA |
| CCCCCC/C=C\CCCCCCCC(=O)OC[C@H](COP(=O)(O)OCCN(C)C)OC(=O)CCCCCCCCCCCCC [No. 59, 1-palmitoleoyl-2-myristoyl-sn-glycero-3-phospho-ethanolamine-N,N-dimethyl] | significantly better than or equivalent to that of POPC | – | – | – | – | delivers small RNA |
| CCCCCCCC/C=C\CCCCCCCC(=O)OC[C@H](COP(=O)(O)OCCN(C)C)OC(=O)CCCCCCCCCCCCC [No. 61, 1-oleoyl-2-myristoyl-sn-glycero-3-phospho-ethanolamine-N,N-dimethyl] | significantly better than or equivalent to that of POPC | delivers small RNA | – | – | delivers small RNA | delivers small RNA |
| CCCC/C=C\CCCCCCCC(=O)O[C@H](COC(=O)CCCCCCCCCCCCCCCCCCC)COP(=O)(O)OCC[N+](C)(C)C [No. 65, 1-eicosanoyl-2-myristoleoyl-sn-glycero-3-phosphocholine] | significantly better than or equivalent to that of POPC | delivers small RNA | – | – | – | delivers small RNA |
| CC/C=C\C/C=C\C/C=C\CCCCCCCC(=O)OCC(COC(=O)CCCCCCCCCCCCCCCCC)OC(=O)CCCCCCC/C=C\C/C=C\CCCCC (stereo not shown) [No. 66, Triglyceride (18:0/18:2/ 18:3)] | significantly better than or equivalent to that of POPC | – | – | delivers small RNA | delivers small RNA | delivers small RNA |
| CC/C=C\C/C=C\C/C=C\C/C=C\C/C=C\CCCC(=O)OCC(COC(=O)CCCCCCC/C=C\CCCCCCCC)OC(=O)CCCCCCC/C=C\C/C=C\CCCCC (stereo not shown) [No. 67, Triglyceride (18:1/18:2 /20:5)] | significantly better than or equivalent to that of POPC | – | delivers small RNA | – | delivers small RNA | delivers small RNA |
| CC/C=C\C/C=C\C/C=C\C/C=C\C/C=C\CCCC(=O)OCC(COC(=O)CCCCCCC/C=C\C/C=C\CCCCC)OC(=O)CCCCCCC/C=C\C/C=C\CCCCC (stereo not shown) [No. 68, Triglyceride (20:5/18:2/ 18:2)] | significantly better than or equivalent to that of POPC | – | delivers small RNA | – | delivers small RNA | delivers small RNA |
| Dilinolenin [No. 70] | significantly better than or equivalent to that of POPC | – | delivers small RNA | – | delivers small RNA | – |
